# Source: patent publication US20260130928A1, “COMBINATION OF AKR1C3 ACTIVATED ANTICANCER PRODRUG COMPOUND AND ANALGESIC DRUG FOR TREATING CANCER PATIENTS ACCOMPANIED BY PAIN” (ASCENTAWITS PHARMACEUTICALS, LTD., priority 2022, published 2026)
# Read-outs that look alike come from different tables or passages of the source.
# Tests used:
# [1] = Body weight / tolerance of mice in the human lung cancer NCI-H460 model
# Procedure: BALB/c nude mice were subcutaneously inoculated with human lung cancer NCI-H460 cells to establish the subcutaneous transplant tumor model of human lung cancer. The experiment was assigned to seven groups, with 5 mice in each group: the test drug Celecoxib 50 mg/kg and 100 mg/kg groups, the AST-3424 2.5 mg/kg group, and different combination therapy groups of Celecoxib 50 mg/kg or 100 mg/kg and AST-3424 2.5 mg/kg, and the 0.5% sodium carboxymethylcellulose vehicle control group. […] The AST-3424 2.5 mg/kg group was administered by tail vein injection once a week for a total of three weeks, and observed for 7 days. In the combination therapy groups of Celecoxib 50 mg/kg or 100 mg/kg and AST-3424 2.5 mg/kg, Celecoxib was administered by gavage once a day for a total of 15 days, and AST-3424 was administered by tail vein injection once a week for a total of three weeks, and observed for 7 days.
# H460 cell line = assay: In vitro cell proliferation inhibition with the drug combination (CTG method); format: cell-based, human; conditions: for IC50: Homo sapiens
# Procedure: • a) H460 cells (human non-small lung cancer cells, AKR1C3 enzyme highly expressed) were cultured in RPMI-1640 medium, added with 10% FBS and 1% double antibody, and placed at 37° C. and 5% CO2 for culturing.
# • a) The cells were routinely cultured until the cell saturation was 80%-90%, and when the required quantity was reached, the cells were collected. • b) The cells were resuspended with the corresponding medium and cell counts were performed to prepare a cell suspension with appropriate density. • c) The cell suspension was added to a 96-well plate with 100 μL per well, and the cell density was 2,000 cells per well. • d) The cells were incubated overnight in an incubator at 37° C. with 5% CO2. 1.1.3 Treating Cells with Compound (72 Hours)
# AST-3424 alone: after 24 hours of cell seeding, AST-3424 was administered alone. Specifically, each well was supplemented with 99 μL of growth medium, and then added with 1 μL of the prepared AST-3424 solution to form different concentrations of AST-3424. The plate was shaken gently to ensure uniform mixing, and placed in an incubator at 37° C. with 5% CO2.
# The cell plates were placed in the incubator for 72 hours.
# 1.1.4 Treating Cells with Compound (2 Hours) • a) Administrating single drug: after 24 hours of cell seeding, AST-3424 was administered alone. Specifically, each well was supplemented with 99 μL of growth medium, and then added with 1 μL of the prepared AST-3424 solution to form different concentrations of AST-3424. The plate was shaken gently to ensure uniform mixing, and placed in the incubator for 2 hours. […] The plate was shaken gently to ensure uniform mixing. After the plate was placed in the incubator for 2 hours, 1 μL of the prepared AST-3424 solution was added to form different concentrations of AST-3424. The plate was shaken gently to ensure uniform mixing, and placed in the incubator at 37° C. with 5% CO2 for another 2 hours. Then, the supernatant was discarded, and the remainder was washed twice with growth medium and added with 200 μL of fresh medium.
# 1.1.6 Detecting with CTG Method • a) The cell plate to be tested was placed at room temperature to equilibrium for 30 minutes, and 100 μL of culture medium was discarded from each well. • b) 25 μL CTG reagent (CelltiterGlo kit) was added to each well. The plate was placed on a fast shaker to shake for 2 minutes, and then placed at room temperature away from light for 30 minutes. • c) The chemiluminescent signal value was read with multifunctional microplate reader at reading time of 1000 ms.
# IC50 was calculated with GraphPad Prism 5 software, and the IC50 (half maximal inhibitory concentration) of the compound was obtained using the following nonlinear fitting formula: […]
# [2] = tested on: human lung cancer NCI-H460; assay: Pharmacodynamics in subcutaneous xenograft model of human lung cancer NCI-H460 (tumor volume, TGI); format: in vivo, BALB/c nude mice; conditions: Group 7: AST-3424 2.5 mg/kg QW×3 i.v.
# Procedure: Measures of pharmacodynamics of AST-3424 monotherapy and combination therapy with Celecoxib were performed in a subcutaneous xenograft model of human lung cancer NCI-H460 established by using female BALB/c nude mice.
# After the inoculation of tumor cell, tumor growth was routinely monitored, and tumor volume and mouse weight were measured. Evaluation of therapeutic efficiency was based on the relative tumor growth inhibition TGI (%). The specific results are shown in Table 3 and FIG. 3, and the Pharmacodynamics analysis data on Day 30 after inoculation (at the end of drug administration) are particularly given in Table 4.
# [3] = cited from earlier work; for AUC0-t / CL (L/h/m^2) / Cmax / T1/2 / Tmax / Vdss (L/m^2): patients, mean
# [4] = Group 7: AST-3424 2.5 mg/kg QW×3 i.v., Day 37 after the inoculation of tumor cell
# [5] = OBI-3424 dose level 1 mg/m^2, infusion
# [6] = OBI-3424 dose level 2 mg/m^2, infusion
# [7] = OBI-3424 dose level 4 mg/m^2, infusion
# [8] = OBI-3424 dose level 6 mg/m^2, infusion
# [9] = OBI-3424 dose level 8 mg/m^2, infusion
# [10] = OBI-3424 dose level 10 mg/m^2, infusion
# [11] = OBI-3424 dose level 12 mg/m^2, infusion
# [12] = OBI-3424 dose level 14 mg/m^2, infusion
compound,measurement,setting,value
C[C@H](OP(=O)(N1CC1)N1CC1)c1ccc([N+](=O)[O-])c(Oc2cccc(C(=O)N(C)C)c2)c1 [AST-3424],Mean body weight g (x ± S),"[1]; Group 7: AST-3424 2.5 mg/kg QW×3 i.v., Day 9 after the inoculation of tumor cell",25.6 ± 0.7 g
same,Change of body weight (%),[1]; [4],−11.74%
same,Mean body weight g (x ± S),[1]; [4],22.5 ± 0.5 g
same,tolerance of mice,[1]; NCI-H460 model,good tolerance
same,IC50,"H460 cell line; NCI-H460, AST-3424 alone, read-out: IC50(nM) -TH-3021",0.97 nM
same,IC50,"H460 cell line; NCI-H460, read-out: IC50(nM) +3 μM TH-3021, +3 μM TH-3021 (2 h pre-incubation, then 2 h with AST-3424)",360 nM
same,Inhibition factor,H460 cell line; IC50 +3 μM TH-3021 vs AST-3424 alone,371.65
same,Tumor volume (x ± S),[2]; Day 9 after cell inoculation,144.01 ± 11.36 mm^3
same,Tumor volume (x ± S),[2]; Day 12 after cell inoculation,164.28 ± 17.97 mm^3
same,Tumor volume (x ± S),[2]; Day 16 after cell inoculation,166.22 ± 18.81 mm^3
same,Tumor volume (x ± S),[2]; Day 19 after cell inoculation,209.80 ± 41.43 mm^3
same,Tumor volume (x ± S),[2]; Day 23 after cell inoculation,208.60 ± 43.27 mm^3
same,Tumor volume (x ± S),[2]; Day 26 after cell inoculation,291.82 ± 67.06 mm^3
same,Tumor volume (x ± S),[2]; Day 30 after cell inoculation,327.47 ± 85.10 mm^3
same,Relative tumor volume (x ± S),[2]; Day 30 after inoculation,2.19 ± 0.41
same,T/C (%),[2]; Day 30 after inoculation,39.25%
same,TGI (%),"[2]; Day 30 after inoculation, 2.5 mg/kg",60.75%
same,Tumor volume (x ± S),"[2]; Day 30 after inoculation, in mm³",327.47 ± 85.10
same,Tumor volume (x ± S),[2]; Day 33 after cell inoculation,348.83 ± 90.34 mm^3
same,Tumor volume (x ± S),[2]; Day 37 after cell inoculation,439.52 ± 142.78 mm^3
same,AUC0-t,[3]; [5],217.10 ng·h/mL
same,CL (L/h/m^2),[3]; [5],4.74 L/h/m^2
same,Cmax,[3]; [5],289.30 ng/mL
same,T1/2,[3]; [5],17.4 min
same,Tmax,[3]; [5],27.6 min
same,Vdss (L/m^2),[3]; [5],2.45 L/m^2
same,AUC0-t,[3]; [6],298.00 ng·h/mL
same,CL (L/h/m^2),[3]; [6],8.85 L/h/m^2
same,Cmax,[3]; [6],375.80 ng/mL
same,T1/2,[3]; [6],18.6 min
same,Tmax,[3]; [6],30 min
same,Vdss (L/m^2),[3]; [6],4.13 L/m^2
same,AUC0-t,[3]; [7],650.90 ng·h/mL
same,CL (L/h/m^2),[3]; [7],7.74 L/h/m^2
same,Cmax,[3]; [7],803.50 ng/mL
same,T1/2,[3]; [7],12.6 min
same,Tmax,[3]; [7],19.8 min
same,Vdss (L/m^2),[3]; [7],2.68 L/m^2
same,AUC0-t,[3]; [8],1278.10 ng·h/mL
same,CL (L/h/m^2),[3]; [8],4.84 L/h/m^2
same,Cmax,[3]; [8],1360.30 ng/mL
same,T1/2,[3]; [8],44.4 min
same,Tmax,[3]; [8],30 min
same,Vdss (L/m^2),[3]; [8],3.72 L/m^2
same,AUC0-t,[3]; [9],1678.40 ng·h/mL
same,CL (L/h/m^2),[3]; [9],6.53 L/h/m^2
same,Cmax,[3]; [9],1613.10 ng/mL
same,T1/2,[3]; [9],40.2 min
same,Tmax,[3]; [9],25.2 min
same,Vdss (L/m^2),[3]; [9],3.97 L/m^2
same,AUC0-t,[3]; [10],2037.00 ng·h/mL
same,CL (L/h/m^2),[3]; [10],4.92 L/h/m^2
same,Cmax,[3]; [10],2654.70 ng/mL
same,T1/2,[3]; [10],34.2 min
same,Tmax,[3]; [10],30 min
same,Vdss (L/m^2),[3]; [10],3.06 L/m^2
same,AUC0-t,[3]; [11],2159.40 ng·h/mL
same,CL (L/h/m^2),[3]; [11],8.20 L/h/m^2
same,Cmax,[3]; [11],2481.90 ng/mL
same,T1/2,[3]; [11],33 min
same,Tmax,[3]; [11],26.4 min
same,Vdss (L/m^2),[3]; [11],4.33 L/m^2
same,AUC0-t,[3]; [12],2131.80 ng·h/mL
same,CL (L/h/m^2),[3]; [12],8.49 L/h/m^2
same,Cmax,[3]; [12],2619.20 ng/mL
same,T1/2,[3]; [12],33 min
same,Tmax,[3]; [12],25.2 min
same,Vdss (L/m^2),[3]; [12],4.31 L/m^2
same,accumulation of exposure (Cmax and AUC),[3]; between the two doses (Cycle 1 Day1 and Cycle 1 Day8),no accumulation of exposure
